Data from patent publication EP0719267B1, “SECOND MESSENGER CELL SIGNALING INHIBITORS” (CELL THERAPEUTICS, INC., priority 1993, dated 1994).

Columns and labels:
[1] = test system: murine cytotoxic T-cell line, CT6; assay: Cytokine-induced proliferation of the cytotoxic T-cell line CT6 / CT-6.1; assay type: cell-based; details: for IC50: Mus musculus, T-cell, CT-6.1 cells; for inhibition of direct IL-2-induced proliferation: added one hour prior to IL-2, thymidine at 48 hours
Experimental: Another assay in this example was used to determine inhibitive activity of the inventive compounds on direct IL-2-induced proliferation in a murine cytotoxic T-cell line, CT6. The CT6 cell line is an IL-2-dependent cell line. IL-2 was removed from the medium for 24 hours prior to stimulation. […] 49, 50, 45, 43 or 41 were added at various concentrations. The cells were stimulated with IL-2 and amount of tritiated thymidine dye incorporated was measured 48 hours later.
In another related assay, inhibitory effects on CT6 cell proliferation is examined. CT6 cells are a murine IL-2 dependent, cytotoxic T cell line that proliferate in response to murine IL-2 (15 U/ml).
CT-6.1 cells were starved overnight and stimulated with IL-2 (20 ng/ml). Twenty hours later, cells were labeled for 4 hours with ^3H-TdR and counted by liquid scintillation.
CT6.1 cells were cultured with IL-2 with or without the addition of inventive compound no. 45 (2 µM) and viable cells counted for up to 8 days. On day 4, two cultures previously incubated with compound no. 45, were washed and recultured with fresh IL-2 with or without compound no. 45 (2 µM).
Procedurally, CT-6.1 cells were starved overnight and stimulated with either IL-2 (20 ng/ml), IL-4 (50 ng/ml) or IL-7 (25 ng/ml). ^3H-TdR was added at 20 hours, cells were harvested 4 hours later, and the incorporation of ^3H-TdR was determined.

[2] = test system: vascular cell adhesion molecule (VCAM); assay: VCAM expression on TNF-stimulated HUVEC (flow cytometry); assay type: cell-based, human
Text: This example illustrates an investigation of inhibition of vascular cell adhesion molecule (VCAM) expression on HUVEC by compound no. 58. VCAM expression by endothelial cells is an early event in the pathogenesis of atherogenesis and multiple sclerosis, among other various autoimmune diseases. Figure 23 is a series of frequency histograms obtained in this exemplary assay. […] In the absence of TNF, VCAM expression on HUVEC was at a very low level. […] The average increase in cell fluorescence was approximately 10-fold. The bottom panel is a frequency histogram of TNF-stimulated cells in the presence of compound no 58. […] 58.
Assay results reported in figures 63A and 63B, illustrate that inventive compound no. […] HUVEC were stimulated with TNFα (20 ng/ml) for 5 hours and stained using fluorescent antibodies to ICAM-1 or VCAM-1. Cell surface expression was analyzed by flow cytometry. All values were normalized to the peak mean fluorescence of the positive control (=100%). Average levels of induction using TNFα- stimulation were 20-fold higher for ICAM-1 and over 50-fold higher for VCAM-1 from that of nonstimulated controls, as shown in figures 63 and 63B.
Figures 73A and 73B illustrate inhibition by inventive compound no. 58 of VCAM or ICAM expression, respectively, in HUVEC activated by TNF. Cells were stimulated for 8 hours in the presence or absence of inventive compounds and stained with fluorescent antibodies to VCAM or ICAM and analyzed by flow cytometry.

72 kD MMP = assay: Metalloproteinase production in TNF-α stimulated THP-1 cells (zymogram); assay type: cell-based, human; details: 2.5 µM, TNF-α 18 hours
Experimental: (§1) Another assay measures an ability of the inventive compounds, as represented by compound no. 50, to inhibit metalloproteinase production in cancer cells. In the assay protocol, THP-1 human leukemia cells (1-2 x 10^6/35 mm dish) were plated in RPMI medium with 0.5% serum. Inventive compound no. 50 was added at 2.5 µM. Following incubation for 1 hour, TNF-α was added and incubated for 18 hours. The supernatants from control and treated plates were collected and protease activity was determined in gelatin gels (zymogram) after electrophoretic protein separation. […] The presence of compound no. […] Compound no. 50, representative of compounds of the invention, is capable of substantially reducing metastatic potential of cancer cells by blocking metalloprotease production.

[3] = test system: 92 kD matrix metalloprotease (MMP); assay: as above; assay type: cell-based, human; details: 2.5 µM, TNF-α 18 hours
Experimental: as §1

Lewis Lung Carcinoma = Lewis Lung Carcinoma (3LL) in vivo experiment; parameters: species or system BDFI mice
Experimental: Figure 43 reports results in an in vivo experiment showing that inventive compound no. […] BDFI mice were injected subcutaneously with 1 x 10^6 3LL cells on day 0 and then treated with inventive compound no. (20 mg/kg i.p.), cyclophosphamide (20 mg/kg) or vehicle on alternate days beginning on day 7. The animals were sacrificed on day 20 and the lung tumors dissected and weighed. Figure 43 illustrates that compound no. […] Figure 44A and 44B illustrates platelet and neutrophil counts, respectively, of the sacrificed mice in the immediately preceding assay. […] 50.

[4] = 20 mg/kg i.p. alternate days from day 7, day 20

Structure (SMILES) | proliferation measured by cell number ([1]; CT6.1 cells, IL-2, 2 µM, up to 8 days) | reversibility of the effect ([1]; CT6.1 cells, washed on day 4) | IC50 ([1]; IL-2 (20 ng/ml), fig. 46) | IC50 ([1]; IL-2 (20 ng/ml), fig. 48) | IC50 ([1]; IL-4 (50 ng/ml)) | IC50 ([1]; IL-7 (25 ng/ml)) | inhibition of direct IL-2-induced proliferation [1] | VCAM-1 cell surface expression ([2]; TNFα (20 ng/ml), 5 hours) | TNF-α-stimulated expression of 72 kD MMP (72 kD MMP) | TNF-α-stimulated expression of 92 kD MMP [3] | lung tumor weight compared with cyclophosphamide (20 mg/kg) (Lewis Lung Carcinoma; [4]) | tumor growth (Lewis Lung Carcinoma; [4]) | platelet and neutrophil counts (Lewis Lung Carcinoma; 20 mg/kg i.p., sacrificed mice) | factor of reduction of mean fluorescence (VCAM expression) ([2]; TNF 6 hours, versus TNF-stimulated cells without compound) | VCAM expression ([2]; TNF, 8 hours)
CCCCCCCCNCC(O)CCCCCCCCCn1c(=O)c2c(ncn2C)n(C)c1=O (stereo not shown) [compound no. 45] | inhibits proliferation as measured by cell number | reversible even after 4 days in culture | ~0.8 µM | < 1 µM | < 1 µM | < 1 µM | inhibited direct IL-2-induced CT6 proliferation | inhibited adhesion receptor expression on HUVEC | – | – | – | – | – | – | –
CCCCCCCCCCCCNCC(O)CCCCCCCCCn1c(=O)c2c(ncn2C)n(C)c1=O (stereo not shown) [compound no. 50, 1-(11-Dodecylamino-10-hydroxyundecyl)-3,7-dmethylxanthine] | – | – | – | – | – | – | inhibited direct IL-2-induced CT6 proliferation | – | blocked the TNF-α-stimulated expression of both the 92 and 72 kD MMPs | blocked the TNF-α-stimulated expression of both the 92 and 72 kD MMPs | superior results over an existing cancer chemotherapeutic agent | can arrest growth of Lewis Lung Carcinoma in mice | not altered from vehicle | – | –
COc1cc(CNCC(O)CCCCCCCCCn2c(=O)c3c(ncn3C)n(C)c2=O)cc(OC)c1OC (stereo not shown) [compound no. 58, 1-[11-(3,4,5-Trimethoxybenzylamino)-10-hydroxyundecyl]-3,7-dimethylxanthine] | – | – | – | – | – | – | – | – | – | – | – | – | – | 8 | inhibition
